Source: ChEMBL document CHEMBL1201862, “PubChem BioAssay data set” (2004)
Active and inactive are the calls of the source.

Legend:
[1] = target: T1, Protein skinhead-1 (Caenorhabditis elegans, UniProt P34707); assay type: functional
T1 sequence (P34707 whole entry): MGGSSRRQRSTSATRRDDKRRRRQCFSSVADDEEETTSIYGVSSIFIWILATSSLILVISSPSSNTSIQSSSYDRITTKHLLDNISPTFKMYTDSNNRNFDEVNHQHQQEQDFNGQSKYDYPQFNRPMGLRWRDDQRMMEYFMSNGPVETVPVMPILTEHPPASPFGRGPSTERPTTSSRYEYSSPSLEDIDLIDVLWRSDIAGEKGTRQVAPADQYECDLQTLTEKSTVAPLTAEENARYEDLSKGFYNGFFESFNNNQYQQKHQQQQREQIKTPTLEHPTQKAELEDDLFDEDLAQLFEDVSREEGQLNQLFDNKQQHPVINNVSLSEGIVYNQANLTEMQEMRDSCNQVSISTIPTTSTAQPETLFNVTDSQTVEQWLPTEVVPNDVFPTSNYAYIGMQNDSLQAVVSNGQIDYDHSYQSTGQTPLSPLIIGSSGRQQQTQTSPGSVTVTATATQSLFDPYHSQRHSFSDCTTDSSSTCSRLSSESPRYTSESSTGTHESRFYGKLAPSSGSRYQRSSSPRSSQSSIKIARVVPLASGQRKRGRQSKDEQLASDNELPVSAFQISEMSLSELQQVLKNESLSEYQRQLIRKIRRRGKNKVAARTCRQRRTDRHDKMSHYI

[2] = target: T2, Zinc finger protein mex-5 (Caenorhabditis elegans, UniProt Q9XUB2); assay: potency of MEX-5 RNA-binding blockers – biochemical, C. elegans, fluorescence polarization, dose response (AID 1960)
T2 sequence (Q9XUB2 whole entry): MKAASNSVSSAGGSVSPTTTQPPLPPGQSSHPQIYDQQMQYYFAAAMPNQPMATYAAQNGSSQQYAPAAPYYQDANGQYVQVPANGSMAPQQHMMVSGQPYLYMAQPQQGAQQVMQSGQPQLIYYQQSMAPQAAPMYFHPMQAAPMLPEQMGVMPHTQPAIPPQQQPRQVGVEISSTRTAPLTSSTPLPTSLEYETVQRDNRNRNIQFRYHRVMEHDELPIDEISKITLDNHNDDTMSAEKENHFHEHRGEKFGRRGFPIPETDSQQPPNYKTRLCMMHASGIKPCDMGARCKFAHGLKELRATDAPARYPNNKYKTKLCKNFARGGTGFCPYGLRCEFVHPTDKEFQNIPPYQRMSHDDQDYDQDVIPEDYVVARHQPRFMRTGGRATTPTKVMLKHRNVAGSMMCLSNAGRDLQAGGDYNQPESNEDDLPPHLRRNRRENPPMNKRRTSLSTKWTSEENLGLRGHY

[3] = target: T3, RNA-binding protein pos-1 (Caenorhabditis elegans, UniProt G5EF15); assay: disruptors of C. elegans POS-1 RNA interaction – biochemical, fluorescence polarization, dose response (AID 1964);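 note: purified POS-1 fused to maltose binding protein made in E. coli; potency of compounds blocking POS-1 binding to fluorescent RNA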
T3 sequence (G5EF15 whole entry): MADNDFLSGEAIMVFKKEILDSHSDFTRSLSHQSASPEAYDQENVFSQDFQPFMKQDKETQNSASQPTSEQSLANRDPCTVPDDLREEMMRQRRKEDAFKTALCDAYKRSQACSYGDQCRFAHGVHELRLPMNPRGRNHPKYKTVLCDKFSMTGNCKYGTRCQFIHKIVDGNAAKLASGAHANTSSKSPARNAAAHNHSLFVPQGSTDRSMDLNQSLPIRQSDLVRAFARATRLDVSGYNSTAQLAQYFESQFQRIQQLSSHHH

[4] = target: T4, Protein RecA (Mycobacterium tuberculosis, UniProt P9WHJ3); assay: Fluorescence Cell-Free Homogeneous Dose Retest to Identify Inhibitors of RecA-Intein Splicing Activity. [Related pubchem assays (depositor defined):AID2097, AID2223, AID489010, AID492950]; assay type: functional
T4 sequence (P9WHJ3 whole entry): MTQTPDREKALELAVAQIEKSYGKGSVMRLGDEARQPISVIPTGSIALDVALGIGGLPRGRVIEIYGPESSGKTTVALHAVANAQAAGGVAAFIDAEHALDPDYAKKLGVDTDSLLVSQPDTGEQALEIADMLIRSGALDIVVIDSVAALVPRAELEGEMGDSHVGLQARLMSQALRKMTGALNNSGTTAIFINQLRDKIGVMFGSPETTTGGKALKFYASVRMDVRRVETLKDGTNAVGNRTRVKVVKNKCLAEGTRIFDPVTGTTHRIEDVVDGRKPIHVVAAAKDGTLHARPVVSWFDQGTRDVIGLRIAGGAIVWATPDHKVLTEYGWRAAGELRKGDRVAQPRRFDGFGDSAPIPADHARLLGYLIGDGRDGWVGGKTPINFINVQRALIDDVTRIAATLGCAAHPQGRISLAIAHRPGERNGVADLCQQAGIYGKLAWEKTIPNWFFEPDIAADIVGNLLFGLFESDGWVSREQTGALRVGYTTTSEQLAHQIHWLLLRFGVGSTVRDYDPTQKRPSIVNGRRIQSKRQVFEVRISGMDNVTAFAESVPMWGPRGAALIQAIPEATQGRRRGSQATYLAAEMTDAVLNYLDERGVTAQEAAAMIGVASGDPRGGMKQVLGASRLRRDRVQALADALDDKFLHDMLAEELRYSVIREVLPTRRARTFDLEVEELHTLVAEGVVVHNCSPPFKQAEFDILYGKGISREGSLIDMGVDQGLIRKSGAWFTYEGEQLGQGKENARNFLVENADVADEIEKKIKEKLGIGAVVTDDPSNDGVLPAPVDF

[5] = target: T5, Replicative DNA helicase DnaB (Mycobacterium tuberculosis, UniProt P9WMR3); assay: DnaB intein splicing inhibitors, dose response, biochemical, cell-free fluorescence (AID 449749); assay type: functional
T5 sequence (P9WMR3 whole entry): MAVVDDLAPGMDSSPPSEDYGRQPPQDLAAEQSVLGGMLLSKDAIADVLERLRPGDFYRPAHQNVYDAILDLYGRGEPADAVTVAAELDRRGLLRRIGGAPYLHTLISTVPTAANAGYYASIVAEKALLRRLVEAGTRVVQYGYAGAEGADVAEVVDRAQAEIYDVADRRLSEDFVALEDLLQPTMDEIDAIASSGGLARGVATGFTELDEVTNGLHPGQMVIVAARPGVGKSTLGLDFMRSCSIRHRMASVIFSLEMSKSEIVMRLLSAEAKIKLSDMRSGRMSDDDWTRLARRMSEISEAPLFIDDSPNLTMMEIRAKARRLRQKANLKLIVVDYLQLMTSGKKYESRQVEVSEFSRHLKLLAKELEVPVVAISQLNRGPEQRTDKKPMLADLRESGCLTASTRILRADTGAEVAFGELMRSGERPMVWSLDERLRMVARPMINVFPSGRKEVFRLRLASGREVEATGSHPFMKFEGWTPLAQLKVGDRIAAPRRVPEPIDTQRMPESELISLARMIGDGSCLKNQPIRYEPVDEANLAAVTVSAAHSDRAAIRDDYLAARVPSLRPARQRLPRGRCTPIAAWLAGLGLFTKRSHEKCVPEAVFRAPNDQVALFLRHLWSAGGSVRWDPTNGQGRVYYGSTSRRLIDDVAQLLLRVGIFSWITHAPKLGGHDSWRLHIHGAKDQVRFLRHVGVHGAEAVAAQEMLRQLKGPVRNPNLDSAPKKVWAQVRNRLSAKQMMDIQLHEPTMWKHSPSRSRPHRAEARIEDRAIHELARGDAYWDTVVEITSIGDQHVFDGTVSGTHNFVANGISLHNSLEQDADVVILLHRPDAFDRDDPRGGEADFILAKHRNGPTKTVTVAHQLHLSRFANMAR

[6] = cells; assay type: functional
[7] = test system: INS1; assay: INS-1E survival protection against cytokine death – cell-based, luminescence, retest, dose response (AID 449756); assay type: functional; conditions: Rattus norvegicus;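 note: cell death triggered by IL-1 beta plus TNF-alpha plus IFN-gamma mixture; protective hits raise ATP signal compared with cytokine alone wells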
[8] = target: T6, Rac GTPase-activating protein 1 (Homo sapiens, UniProt Q9H0H5); assay: blockers of MgcRacGAP-driven Rac1 GTP hydrolysis – biochemical, ADP Hunter fluorescence, primary and confirmatory, confirmation (AID 624330); assay type: functional
T6 sequence (Q9H0H5 whole entry): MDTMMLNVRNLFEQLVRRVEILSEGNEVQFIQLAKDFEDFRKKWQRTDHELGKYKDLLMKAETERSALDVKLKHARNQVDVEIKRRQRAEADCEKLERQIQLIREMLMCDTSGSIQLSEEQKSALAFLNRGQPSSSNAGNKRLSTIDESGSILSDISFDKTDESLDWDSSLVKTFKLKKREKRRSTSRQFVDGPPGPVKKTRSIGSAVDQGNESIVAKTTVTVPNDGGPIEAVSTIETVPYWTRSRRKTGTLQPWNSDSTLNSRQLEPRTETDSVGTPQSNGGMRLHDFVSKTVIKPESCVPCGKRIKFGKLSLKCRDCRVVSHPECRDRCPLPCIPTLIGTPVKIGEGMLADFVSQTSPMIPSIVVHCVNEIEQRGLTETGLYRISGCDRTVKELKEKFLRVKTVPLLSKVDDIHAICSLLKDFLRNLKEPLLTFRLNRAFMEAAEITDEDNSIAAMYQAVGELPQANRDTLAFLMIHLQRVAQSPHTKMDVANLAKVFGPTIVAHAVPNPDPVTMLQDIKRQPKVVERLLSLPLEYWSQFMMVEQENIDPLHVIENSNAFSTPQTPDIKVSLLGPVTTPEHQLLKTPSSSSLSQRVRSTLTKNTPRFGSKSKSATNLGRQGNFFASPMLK

[9] = luciferase reporter signal suppression in cells – H4 neuroglioma cells, luminescence, dose response (AID 1990); assay type: functional, cell-based
[10] = Luminescence Cell-Based Dose Response HTS to Identify Inhibitors of 5'UTR Stem-Loop Driven Prion Protein mRNA Translation in H4 Neuroglioblastoma Cells. [Related pubchem assays: 1827 (Project Summary), 1813 (Primary HTS)]; assay type: functional
[11] = alpha-synuclein stem-loop luciferase translation blockers – H4 neuroglioma cells, luminescence, confirmation (AID 1988); assay type: functional, cell-based
[12] = Luminescence Cell-Based Dose Retest to Confirm Inhibitors of Cancer Stem Cells. [Related pubchem assays (depositor defined):AID2717, AID2721]; assay type: functional; conditions: Homo sapiens

| Compound | IC50 [1] | EC50 [4] | AC50 [5] | other results |
| --- | --- | --- | --- | --- |
| CCCCOC(=O)Nc1ccc(C(C)C)cc1 | 42.4 µM (active) | – | – | – |
| O=C(/C=C/c1ccco1)N1CCc2ccccc21 | 48.6 µM (active) | – | – | – |
| C(#Cc1ccc2c(c1)COc1c3ccccc3nn1-2)c1ccccc1 | > 100 µM (inactive) | – | – | EC50 [2]: 169 µM (active); EC50 [3]: > 300 µM (not active) |
| Cc1cc(C)c(NC(=O)C[S+]([O-])CC(=O)Nc2ccc(N3CCOCC3)cc2)c(C)c1 (stereo unspecified) | > 100 µM (inactive) | – | – | – |
| Cc1cc(C(=O)CSc2nnc(-c3cccs3)n2Cc2ccccc2)c(C)n1C | > 100 µM (inactive) | – | – | – |
| N#C/C(=C/c1cccn1-c1cccc(C(=O)O)c1)c1ccc(F)cc1 | – | > 380 µM (inconclusive) | 14.1 µM (active) | EC50 [2]: > 300 µM (not active); EC50 [3]: > 300 µM (not active) |
| C(=C\c1ccc2ccccc2n1)/c1ccccc1 | 24.8 µM (active) | – | – | – |
| Cc1ccc2[nH]c3c(c2c1)CN(C(=O)CN1CCSCC1)CC3 | – | 0.132 µM (active) | > 380 µM (inconclusive) | – |
| CCOC(=O)c1cc2cc3ccccc3cc2oc1=O | – | – | – | IC50 [6]: 10.9 µM (active) |
| COC1(OC)C(/C=C/c2ccc(C)cc2)C(C#N)(C#N)C1(OC)OC (stereo unspecified) | – | > 380 µM (inactive) | > 380 µM (inactive) | – |
| CCO/C(O)=C1\C(C)=NC(SCc2cc(O)[nH]n2)=C(C#N)C1c1cccs1 (stereo unspecified) | – | 4.99 µM (active) | 6.16 µM (active) | – |
| CN(CCC#N)C(=O)Cn1nc(Cc2ccncc2)c2ccccc2c1=O | – | > 380 µM (inactive) | > 380 µM (inactive) | – |
| COC(=O)COc1cccc(NC(=O)c2ccc(Cl)cc2)c1 | – | – | – | IC50 [6]: 2.8 µM (active) |
| Cc1cccc(CSC(Nc2ccc(F)cc2)=C(C#N)C#N)c1 | – | 10.9 µM (active) | 7.03 µM (active) | AC50 [7]: 4.83 µM (active) |
| Cn1c(SCC(=O)NCC2CCCO2)ncc(C(=O)Nc2ccc(Cl)cc2)c1=O (stereo unspecified) | – | 1.13 µM (active) | > 380 µM (inactive) | – |
| O=C1c2ccccc2-c2nnc(-c3ccc(O)cc3)cc21 | – | 1.13 µM (active) | 15.4 µM (active) | – |
| O=C(Oc1ccccc1)c1ccc(COC(=O)c2cnccn2)cc1 | – | – | – | IC50 [6]: 6.29 µM (active) |
| CC1OC(c2ccccc2)OC2COC(c3ccccc3)OC12 (stereo unspecified) | > 100 µM (inactive) | – | – | – |
| O=C(N/N=C/c1ccc(O)cc1)c1cccc(C(F)(F)F)c1 | – | – | – | IC50 [8]: 83.9 µM (active); IC50 [6]: 38.6 µM (active) |
| Cc1cccc(C)c1OCC(O)CN(Cc1ccccc1O)C1CCCCC1 (stereo unspecified) | > 100 µM (inactive) | – | – | EC50 [9]: > 120 µM (not active); EC50 [10]: > 120 µM (not active); EC50 [11]: > 120 µM (not active) |
| CC(=O)Nc1ccc(NC(=O)C2Cc3c(-c4cccc(F)c4)ccnc3O2)cc1 (stereo unspecified) | > 100 µM (inactive) | – | – | – |
| CS(=O)(=O)c1ccc(C(=O)OCC(=O)NC23CC4CC(CC(C4)C2)C3)cc1[N+](=O)[O-] | – | 1.32 µM (active) | 1.18 µM (active) | AC50 [12]: 2.4 µM (active) |
